Data on 1 molecule can be found in patent US20230270798A1, “SYNBIOTIC COMPOSITION” (SOCIETE DES PRODUITS NESTLE S.A., priority 2020, published 2023).

The subject of assay [1] is B. longum subsp. longum. In words: Short-term colonic incubation, population of B. longum subsp. longum (16S Illumina sequencing with flow cytometry). The class given is cell-based, Bifidobacterium longum subsp. longum. As to conditions: after 6 and 48 hours of incubation; synbiotic compared to the probiotic alone. Here is the method: (§1) The aim of this project was to evaluate the properties of a synbiotic combination of Bifidobacterium longum subsp. longum ATCC BAA-999 and LNT using short-term colonic incubations (48 h), in which the proximal colon environment of a baby was simulated. The evaluation was based on the effects on microbial metabolic activity (SCFA, lactate and ammonium production) and community composition (16Stargeted Illumina sequencing), through comparison with a blank (no treatment), a probiotic (containing only the B. longum subsp. longum strain) and a prebiotic (containing only LNT).
(§2) In these experiments, a simplified simulation of the continuous Simulator of the Human Microbial Ecosystem (SHIME®) was used. […]
(§3) To account for biological variability, all tests were performed in triplicate, resulting in 12 independent incubations. […] Ammonium concentrations were measured at the start and after 48 h of incubation. The effect on the gut microbial community was assessed through Illumina sequencing at the start of the incubation and after 6 h, and 48 h. […]
(In flow cytometry, cells or beads pass a laser one at a time.)

Assay [2] has as its system Streptococcus salivarius. In words: Short-term colonic incubation, population of Streptococcus salivarius (16S Illumina sequencing with flow cytometry). In kind it is cell-based. Here is the method:
as §1, §2, §3

As for `CC(=O)N[C@H]1[C@H](O[C@H]2[C@@H](O)[C@@H](CO)O[C@@H](O[C@H]3[C@H](O)[C@@H](O)C(O)O[C@@H]3CO)[C@@H]2O)O[C@H](CO)[C@@H](O)[C@@H]1O[C@@H]1O[C@H](CO)[C@H](O)[C@H](O)[C@H]1O` (stereo partly drawn) [prebiotic, Lacto-N-tetraose], in assay [1], the “population of B. longum subsp. longum (in words)” value is given as “no effect”. The “population of S. salivarius at 48 hours compared to the population at 6 hours (in words)” value in assay [2] (48 hours vs 6 hours) was “strongly decreases”. Moreover, the “boost of the population of Streptococcus salivarius (in words)” value in assay [2] (after 6 and 48 hours of incubation) was “neither the probiotic alone, nor the prebiotic alone were able to boost”.
